The source of these data is patent US20110136819A1, “6-THIOXOPYRIDAZINE DERIVATIVES” (MERCK PATENT GESELLSCHAFT MIT BESCHRÄNKTER HAFTUNG, priority 2007, published 2011).

Where a name gives a salt, the structure may show the parent alone.

T1 sequence (P08581 25-1390): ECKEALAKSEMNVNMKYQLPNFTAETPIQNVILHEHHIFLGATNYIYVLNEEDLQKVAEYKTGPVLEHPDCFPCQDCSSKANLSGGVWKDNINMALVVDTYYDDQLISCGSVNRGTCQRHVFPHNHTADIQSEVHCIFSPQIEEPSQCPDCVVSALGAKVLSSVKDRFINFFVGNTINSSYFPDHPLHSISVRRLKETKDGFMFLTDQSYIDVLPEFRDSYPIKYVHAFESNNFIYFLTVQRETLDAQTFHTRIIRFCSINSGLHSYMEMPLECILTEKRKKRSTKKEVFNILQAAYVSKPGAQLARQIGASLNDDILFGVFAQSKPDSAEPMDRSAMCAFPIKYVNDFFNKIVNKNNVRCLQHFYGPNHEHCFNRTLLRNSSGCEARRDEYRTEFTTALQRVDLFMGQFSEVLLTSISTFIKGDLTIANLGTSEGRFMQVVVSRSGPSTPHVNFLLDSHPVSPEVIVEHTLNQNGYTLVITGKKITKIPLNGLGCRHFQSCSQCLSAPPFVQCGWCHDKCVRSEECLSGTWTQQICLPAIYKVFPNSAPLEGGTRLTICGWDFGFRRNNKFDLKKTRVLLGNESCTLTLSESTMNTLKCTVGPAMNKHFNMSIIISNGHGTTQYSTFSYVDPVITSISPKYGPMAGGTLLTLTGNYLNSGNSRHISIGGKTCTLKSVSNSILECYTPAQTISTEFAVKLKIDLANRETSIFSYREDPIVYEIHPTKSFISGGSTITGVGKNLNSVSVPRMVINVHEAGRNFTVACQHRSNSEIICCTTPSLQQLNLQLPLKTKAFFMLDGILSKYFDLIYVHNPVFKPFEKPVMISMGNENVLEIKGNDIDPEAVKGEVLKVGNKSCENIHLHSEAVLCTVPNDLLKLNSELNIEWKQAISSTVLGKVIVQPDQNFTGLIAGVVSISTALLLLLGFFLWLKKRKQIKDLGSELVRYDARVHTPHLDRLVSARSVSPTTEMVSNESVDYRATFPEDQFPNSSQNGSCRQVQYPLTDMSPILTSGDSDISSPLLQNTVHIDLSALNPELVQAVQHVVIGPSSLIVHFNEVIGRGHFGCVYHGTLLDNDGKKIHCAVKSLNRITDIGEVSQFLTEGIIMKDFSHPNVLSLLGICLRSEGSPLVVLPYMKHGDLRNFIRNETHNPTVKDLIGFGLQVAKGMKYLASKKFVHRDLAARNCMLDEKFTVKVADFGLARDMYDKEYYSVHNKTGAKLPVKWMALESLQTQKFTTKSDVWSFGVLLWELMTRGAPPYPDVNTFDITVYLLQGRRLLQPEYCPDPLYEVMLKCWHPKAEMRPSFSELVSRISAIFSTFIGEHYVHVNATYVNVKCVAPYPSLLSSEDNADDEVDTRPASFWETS

This assay concerns the target T1, Met kinase (Homo sapiens, UniProt P08581).
T1 construct: 6His (N); purchased Upstate 14-526; host or cells: Sf21 insect cells (S. frugiperda), baculovirus
In words: Met kinase inhibition (enzyme assay), flashplate method. In kind it is biochemical. Conditions: 33P-ATP, substrate pAGLT, 3 hrs at room temperature. The source says:
According to the manufacturer's data (Met, active, upstate, catalogue no. 14-526), Met kinase is expressed for the purposes of protein production in insect cells (Sf21; S. frugiperda) and subsequent affinity-chromatographic purification as “N-terminal 6His-tagged” recombinant human protein in a baculovirus expression vector.
The test plates used are 96-well Flashplate® microtitre plates from Perkin Elmer (Cat. No. SMP200). The components of the kinase reaction described below are pipetted into the assay plate. The Met kinase and the substrate poly Ala-Glu-Lys-Tyr, (pAGLT, 6:2:5:1), are incubated for 3 hrs at room temperature with radioactively labelled ^33P-ATP in the presence and absence of test substances in a total volume of 100 μl. The reaction is terminated using 150 μl of a 60 mM EDTA solution. After incubation for a further 30 min at room temperature, the supernatants are filtered off with suction, and the wells are washed three times with 200 μl of 0.9% NaCl solution each time. The measurement of the bound radioactivity is carried out by means of a scintillation measuring instrument (Topcount NXT, Perkin-Elmer).
The full value used is the inhibitor-free kinase reaction. This should be approximately in the range 6000-9000 cpm. The pharmacological zero value used is staurosporin in a final concentration of 0.1 mM. The inhibitory values (IC50) are determined using the RS1_MTS program.
30 μl of assay buffer 10 μl of substance to be tested in assay buffer with 10% of DMSO 10 μl of ATP (final concentration 1 μM cold, 0.35 μCi of ^33P-ATP) 50 μl of Met kinase/substrate mixture in assay buffer; • (10 ng of enzyme/well, 50 ng of pAGLT/well)
Assay Buffer: • 50 mM HEPES • 3 mM magnesium chloride • 3 μM sodium orthovanadate • 3 mM manganese(II) chloride • 1 mM dithiothreitol (DTT) • pH=7.5 (to be set using sodium hydroxide)
Stop Solution: • 60 mM Titriplex III (EDTA) • ^33P-ATP: Perkin-Elmer; • Met kinase: Upstate, Cat. No. 14-526, Stock 1 μg/10 μl; spec. activity 954 U/mg; • Poly-Ala-Glu-Lys-Tyr, 6:2:5:1: Sigma Cat. No. P1152
Consider `CN1CCN(CCCOC(=O)Nc2cccc(Cn3nc(-c4cc(F)cc(F)c4)ccc3=S)c2)CC1` [Compound A1, 3-(4-methylpiperazin-1-yl)propyl{3-[6-thioxo-3-(3,5-difluorophenyl)-6H-pyridazin-1-ylmethyl]phenyl}carbamate], for which the IC50 fell in the range of 10 to 1000 nM.

In the case of `CN1CCN(CCCOC(=O)Nc2cccc(Cn3nc(-c4cc(F)c(F)c(F)c4)ccc3=S)c2)CC1` [Compound A2, 3-(4-methylpiperazin-1-yl)propyl{3-[6-thioxo-3-(3,4,5-trifluorophenyl)-6H-pyridazin-1-ylmethyl]phenyl}carbamate formate], the IC50 is 10 to 1000 nM.

For the molecule `Cc1cnc(-c2cccc(Cn3nc(-c4cccc(Cl)c4)ccc3=S)c2)s1` [Compound A4, 6-(3-chlorophenyl)-2-[3-(5-methylthiazol-2-yl)benzyl]-2H-pyridazine-3-thione], the IC50 is 10 to 1000 nM.

Take `Cc1cnc(-c2cccc(Cn3nc(-c4cc(F)cc(F)c4)ccc3=S)c2)s1` [Compound A3, 6-(3,5-difluorophenyl)-2-[3-(5-methylthiazol-2-yl)-benzyl]-2H-pyridazine-3-thione]: the IC50 was in the range of 10 to 1000 nM.
